For assay [1], the system named is mouse L929 fibroblasts. Conditions: cited from earlier work.
Assay [2] relates to primary glial cells. To be noted: cited from earlier work.
Assay [3] relates to ROS 17/2.8 osteoblastic cells. To be noted: cited from earlier work.
Assay [4] relates to wild type cells. In words: G418 concentration curve on wild type cells. The class given is cell-based. To be noted: in 13 days. As for the experimental part: Since geneticin (G418) resistance would be used as a selection tool, a G418 concentration curve was done and it was determined that 600 μg/ml was the minimum concentration G418 necessary to kill all the wild type cells in 13 days.

In assay [5] the test system is human nerve growth factor exon 3 promoter (pGL2Ex3) in L929 cells. In words: Luciferase assay, L929 stable cell line with pGL2Ex3 (human NGF exon 3 promoter). The class given is cell-based. To be noted: serum deprivation 48-56 hours, 18 hr treatment: serum 10% horse serum, PMA 1 μM, calcitriol 10 nM, mean ± SEM, 1 cell line n = 11-17, read-out: Fold induction over vehicle controls without serum (luciferase), L929 Mouse Exon 3. An excerpt: (§1) DNA for the human nerve growth factor exon 3 clones was originally identified by PCR screening a human P1 genomic library (clone 0095-B8, Genome Systems). A ˜6600 bp fragment containing exon 3 was cloned into a pBS SK+ vector to yield the plasmid identified as pBSEx3. A 4329 bp fragment was isolated from the insert in pBSEx3 and subcloned into a pGL2 enhancer vector (Promega) and a pGL3 basic vector (Promega) to yield clones identified as pGL2Ex3 and pGL3Ex3, respectively. The pGL2Ex3 was transfected into mouse L929 cells and the pGL3Ex3 vector was transfected into human UC11 cells to generate the data in Table 1.
L929 mouse fibroblast cells (ATCC, Rockville, Md.) were grown in Dulbecco's modified Eagle's medium (DMEM) containing 10% horse serum, penicillin (50 μg/ml), streptomycin (50 μg/ml), neomycin (100 μg/ml), and glutamine (1 mM). Cells were maintained at 37° C. in 5% CO2, fed every 3-4 days and passaged once per week. […]
(§2) Cells were plated at 5,000 cells/well in 96 well dishes in serum containing media described above. […] Cells were treated with 1 μM PMA, 10 nM calcitriol or 10% horse serum and luciferase activity was determined 18 hours later using a Promega kit (catalog #E1500). […] Luciferase activity was detected in a MicroLumat LB 96 P luminometer (Wallac Inc, Gaithersburg, Md.) for 10 seconds following automatic injection of 100 μl 470 μM luciferin.

Assay [6] concerns human nerve growth factor exon 1 promoter KE (pNE1KE) in L929 cells. The assay can be described thus: Luciferase assay, L929 stable cell lines with pNE1KE (human NGF exon 1 promoter KE). Conditions: serum deprivation 48-56 hours, 18 hr treatment: serum 10% horse serum, PMA 1 μM, calcitriol 10 nM, mean ± SEM, 6 cell lines in duplicate, read-out: Fold induction over vehicle controls without serum (luciferase), L929 Mouse Exon 1 KE. It counts as cell-based.
Source text: (§3) DNA for the human nerve growth factor exon 1 clones was originally identified by PCR screening a human P1 genomic library (clone 1226-G9, Genome Systems). A ˜14,000 bp fragment containing exon 1 was cloned into a pBS SK+ vector to yield the plasmid identified as pBSEx1. Two overlapping fragments were isolated from the insert in pBSEx1 and subcloned into a pGL3neo vector. The largest construct containing human nerve growth factor exon 1 is 2846 bp and is identified as pNE1KS. The second subclone from pBSEx1, identified as pNE1KE, contains the same 5′ end as pNE1KS and is truncated on the 3′ end in exon 1, resulting in an insert that is 2234 bp. pNE1KS and pNE1KE were transfected into mouse L929 cells and human UC 11 cells to generate the data in Table 1. […]
as §2

For assay [7], the system named is human nerve growth factor exon 1 promoter KS (pNE1KS) in L929 cells. The assay can be described thus: Luciferase assay, L929 stable cell lines with pNE1KS (human NGF exon 1 promoter KS). It counts as cell-based. Conditions: serum deprivation 48-56 hours, 18 hr treatment: serum 10% horse serum, PMA 1 μM, calcitriol 10 nM, mean ± SEM, 6 cell lines in duplicate, read-out: Fold induction over vehicle controls without serum (luciferase), L929 Mouse Exon 1 KS.
Source text: as §3, §2

Assay [8] concerns human nerve growth factor exon 3 promoter (pGL3Ex3) in UC11 cells. The assay can be described thus: Luciferase assay, UC11 stable cell line with pGL3Ex3 (human NGF exon 3 promoter). To be noted: serum deprivation 48-56 hours, 18 hr treatment: serum 10% horse serum, PMA 1 μM, calcitriol 10 nM, mean ± SEM, 1 cell line n = 11-17, read-out: Fold induction over vehicle controls without serum (luciferase), UC11 Human Exon 3. It counts as cell-based.
Source text: as §1
UC11 human astrocytoma cells (Liwnicz, et. al. 1986) were grown in RPMI 1640 containing 10% fetal bovine serum, 20 mM HEPES, penicillin (50 μg/ml), streptomycin (50 μg/ml), neomycin (100 μg/ml), and glutamine (1 mM). Cells were maintained at 37° C. in 5% CO2, fed every 3-4 days and passaged once per week. […]
as §2

Assay [9] has as its system human nerve growth factor exon 1 promoter KE (pNE1KE) in UC11 cells. In words: Luciferase assay, UC11 stable cell lines with pNE1KE (human NGF exon 1 promoter KE). The class given is cell-based. Conditions: serum deprivation 48-56 hours, 18 hr treatment: serum 10% horse serum, PMA 1 μM, calcitriol 10 nM, mean ± SEM, 6 cell lines in triplicate, read-out: Fold induction over vehicle controls without serum (luciferase), UC11 Human Exon 1 KE.
Source text: as §3, §2

The test system of assay [10] is human nerve growth factor exon 1 promoter KS (pNE1KS) in UC11 cells. In words: Luciferase assay, UC11 stable cell lines with pNE1KS (human NGF exon 1 promoter KS). It counts as cell-based. Conditions: serum deprivation 48-56 hours, 18 hr treatment: serum 10% horse serum, PMA 1 μM, calcitriol 10 nM, mean ± SEM, 6 cell lines in triplicate, read-out: Fold induction over vehicle controls without serum (luciferase), UC11 Human Exon 1 KS.
Source text: as §3, §2

The values below come from patent US20030159159A1, “Human nerve growth factor exon 1 and exon 3 promoters” (priority 1997, published 2003).

Turning to `CCCCCCCCCCCCCC(=O)O[C@@H]1[C@@H](C)[C@@]2(O)[C@@H](C=C(CO)C[C@]3(O)C(=O)C(C)=C[C@@H]23)[C@@H]2C(C)(C)[C@]12OC(C)=O` [PMA, phorbol 12-myristate 13-acetate], the “effect on synthesis of NGF” value in assay [1] and in [2] was “enhances the synthesis of NGF” each time. The “effect on NGF expression” value in [3] was “suppresses expression”.
`CN[C@@H]1[C@@H](O)[C@@H](O[C@@H]2[C@@H](O)[C@H](O[C@H]3O[C@H]([C@@H](C)O)[C@@H](O)[C@H](O)[C@H]3N)[C@@H](N)C[C@H]2N)OC[C@]1(C)O` [G418, geneticin]: the “minimum concentration G418 necessary to kill all the wild type cells” value in assay [4] is 600 µg/mL.
For the molecule `C=C1/C(=C\C=C2/CCC[C@]3(C)[C@@H]([C@H](C)CCCC(C)(C)O)CC[C@@H]23)C[C@@H](O)C[C@@H]1O` [CALCITRIOL, calcitriol], the fold induction at 0.01 µM in assay [5] worked out at 0.73; in [6], 0.71; in [7], 0.67; in assay [8], 0.98; in assay [9], 1.01 ± 0.23; in assay [10], 0.86 ± 0.03.
